# How the values were obtained:
# [1] = biological target: T1, factor Xa binding to factor Va2 (Homo sapiens, UniProt P00742+P12259); experiment: Prothrombinase assembly monitored by initial rate of thrombin formation (DAPA fluorescence, stopped flow), FVa2; assay type: biochemical; details: in presence of 400 μM C6PS
# T1 construct: Human prothrombin and factor Xa; tissue Hematologic Technologies Inc. (factor Xa only); factor Xa purchased
# Description: The initial rate of thrombin formation was monitored by DAPA fluorescence. Stopped flow fluorescence measurements were performed at 37° C. with final mixing chamber concentrations of 1 μM prothrombin, 5 μM DAPA, 1 nM factor Xa, 400 μM C6PS and various concentrations of factor Va2 (Panel A) or Va1 (Panel B) in 50 mM Tris-HCl (pH 7.5), 150 mM NaCl, 5 mM CaCl2. The initial rates were fit to a single binding site model as described herein to determine the Kd^eff of factor Xa binding to factor Va2 in presence of 400 μM C6PS (2.4±0.3 nM). […] The abrupt appearance of aggregates at 700 μM C6PS defines the critical micelle concentration under these experimental conditions.
# Fluorescence Stopped-Flow Measurements. The rates of thrombin formation from either MzIIa or Pre2 (with equimolar fragment 1.2), or of thrombin plus MzIIa formation from human prothrombin, were estimated from the time-dependent fluorescence change of DAPA bound to the activation products. […] The calculation of rates from measurements of initial fluorescence intensity (F0) and intensity at the completion of the reaction (F∞) is well-established (Nesheim and Mann (1983) supra; Wu, et al. (2002) supra).
# Initial rates of prothrombin activation by FXa as monitored by DAPA fluorescence are shown in FIG. 2 as a function of added FVa2 (Panel A) and FVa1 (Panel B) in the presence of 400 μM C6PS. […]
# factor Va = biological target: T2, factor Va (Bos taurus, UniProt Q28107); details: Zhai et al. (2002); read-out: kd of binding to factor Va; cited from earlier work
# T2 sequence (Q28107 29-741 limits assumed): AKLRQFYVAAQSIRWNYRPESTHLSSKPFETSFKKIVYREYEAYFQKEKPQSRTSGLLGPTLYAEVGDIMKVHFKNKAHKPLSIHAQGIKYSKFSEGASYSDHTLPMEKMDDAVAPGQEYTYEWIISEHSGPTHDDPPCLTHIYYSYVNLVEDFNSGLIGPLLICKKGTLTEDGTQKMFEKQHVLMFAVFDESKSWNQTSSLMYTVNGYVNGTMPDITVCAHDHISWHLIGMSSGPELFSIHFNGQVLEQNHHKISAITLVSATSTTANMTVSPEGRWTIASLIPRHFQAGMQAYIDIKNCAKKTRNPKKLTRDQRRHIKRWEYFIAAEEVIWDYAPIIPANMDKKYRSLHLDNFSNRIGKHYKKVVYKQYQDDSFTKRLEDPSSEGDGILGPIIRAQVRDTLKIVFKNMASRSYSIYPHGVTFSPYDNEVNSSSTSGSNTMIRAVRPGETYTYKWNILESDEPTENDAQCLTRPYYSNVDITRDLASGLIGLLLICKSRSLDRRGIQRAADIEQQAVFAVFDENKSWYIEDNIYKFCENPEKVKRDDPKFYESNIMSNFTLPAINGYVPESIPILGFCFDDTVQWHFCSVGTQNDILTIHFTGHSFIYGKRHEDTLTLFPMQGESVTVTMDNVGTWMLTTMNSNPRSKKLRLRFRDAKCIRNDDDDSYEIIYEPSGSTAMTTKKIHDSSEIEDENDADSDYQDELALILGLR
# T2 sequence (Q28107 1565-2211 limits assumed): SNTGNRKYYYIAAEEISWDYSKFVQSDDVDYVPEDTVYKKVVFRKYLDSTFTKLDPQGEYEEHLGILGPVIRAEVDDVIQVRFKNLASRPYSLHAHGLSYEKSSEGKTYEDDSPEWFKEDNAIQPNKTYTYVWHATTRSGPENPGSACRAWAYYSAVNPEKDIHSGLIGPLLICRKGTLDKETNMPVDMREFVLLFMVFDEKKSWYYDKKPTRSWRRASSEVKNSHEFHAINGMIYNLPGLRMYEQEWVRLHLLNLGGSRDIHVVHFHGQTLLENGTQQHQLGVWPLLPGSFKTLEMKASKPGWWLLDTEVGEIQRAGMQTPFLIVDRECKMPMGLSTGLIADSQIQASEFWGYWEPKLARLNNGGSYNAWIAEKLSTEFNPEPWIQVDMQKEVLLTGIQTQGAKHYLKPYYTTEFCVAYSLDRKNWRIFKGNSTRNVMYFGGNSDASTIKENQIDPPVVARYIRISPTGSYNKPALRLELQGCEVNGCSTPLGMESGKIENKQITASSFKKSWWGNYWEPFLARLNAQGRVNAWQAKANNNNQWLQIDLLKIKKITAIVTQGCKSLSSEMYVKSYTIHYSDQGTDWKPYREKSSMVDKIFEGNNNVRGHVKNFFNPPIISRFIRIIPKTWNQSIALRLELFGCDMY
# T1 sequence (P00742 41-179 limits assumed): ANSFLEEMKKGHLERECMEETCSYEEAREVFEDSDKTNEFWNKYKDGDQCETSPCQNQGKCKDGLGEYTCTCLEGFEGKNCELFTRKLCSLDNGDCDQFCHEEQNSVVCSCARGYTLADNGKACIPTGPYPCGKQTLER
# T1 sequence (P00742 235-488 limits assumed): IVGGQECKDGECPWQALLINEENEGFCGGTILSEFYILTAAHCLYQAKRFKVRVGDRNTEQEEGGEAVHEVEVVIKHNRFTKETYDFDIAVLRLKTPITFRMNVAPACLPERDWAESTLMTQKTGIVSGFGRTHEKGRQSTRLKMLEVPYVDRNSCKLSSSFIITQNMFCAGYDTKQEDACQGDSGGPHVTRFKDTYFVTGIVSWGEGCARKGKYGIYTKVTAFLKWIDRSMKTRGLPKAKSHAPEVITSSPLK
# T1 sequence (P12259 29-737 limits assumed): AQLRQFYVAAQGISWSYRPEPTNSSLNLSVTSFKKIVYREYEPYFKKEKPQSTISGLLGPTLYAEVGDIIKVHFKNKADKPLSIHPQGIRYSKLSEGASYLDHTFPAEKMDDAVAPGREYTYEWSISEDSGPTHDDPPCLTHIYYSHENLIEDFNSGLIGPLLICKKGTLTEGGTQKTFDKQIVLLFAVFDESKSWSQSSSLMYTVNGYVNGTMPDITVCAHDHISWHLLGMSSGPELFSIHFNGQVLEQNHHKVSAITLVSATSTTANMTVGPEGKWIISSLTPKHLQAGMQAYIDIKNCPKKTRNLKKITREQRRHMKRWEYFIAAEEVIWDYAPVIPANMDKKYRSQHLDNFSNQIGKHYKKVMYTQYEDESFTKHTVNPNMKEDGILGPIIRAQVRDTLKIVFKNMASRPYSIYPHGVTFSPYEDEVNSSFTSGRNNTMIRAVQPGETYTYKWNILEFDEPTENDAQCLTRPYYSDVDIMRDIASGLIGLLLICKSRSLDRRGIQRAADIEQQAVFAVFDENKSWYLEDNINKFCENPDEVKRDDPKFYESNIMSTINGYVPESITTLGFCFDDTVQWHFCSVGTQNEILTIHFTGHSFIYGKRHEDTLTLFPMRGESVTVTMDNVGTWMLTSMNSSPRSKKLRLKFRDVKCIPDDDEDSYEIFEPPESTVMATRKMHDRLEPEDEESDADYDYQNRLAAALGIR
# T1 sequence (P12259 1574-2224 limits assumed): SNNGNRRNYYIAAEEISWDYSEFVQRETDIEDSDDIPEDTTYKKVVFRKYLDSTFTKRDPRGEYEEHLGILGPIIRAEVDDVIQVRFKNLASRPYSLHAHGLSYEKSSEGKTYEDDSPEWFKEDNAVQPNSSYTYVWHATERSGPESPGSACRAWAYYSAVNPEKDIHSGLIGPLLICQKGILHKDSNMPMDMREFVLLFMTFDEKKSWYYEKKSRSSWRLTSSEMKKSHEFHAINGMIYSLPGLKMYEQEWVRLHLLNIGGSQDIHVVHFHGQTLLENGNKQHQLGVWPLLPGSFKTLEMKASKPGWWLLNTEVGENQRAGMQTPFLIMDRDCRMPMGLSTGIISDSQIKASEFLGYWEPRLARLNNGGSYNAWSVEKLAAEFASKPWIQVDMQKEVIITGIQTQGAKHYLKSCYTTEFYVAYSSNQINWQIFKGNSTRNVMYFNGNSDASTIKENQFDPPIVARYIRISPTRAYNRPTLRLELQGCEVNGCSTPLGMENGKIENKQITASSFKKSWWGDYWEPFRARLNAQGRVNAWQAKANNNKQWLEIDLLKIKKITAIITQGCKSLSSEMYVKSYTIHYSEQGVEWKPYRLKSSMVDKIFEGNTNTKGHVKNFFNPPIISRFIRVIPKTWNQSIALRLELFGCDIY
smiles,measurement,setting,value
"CCCCCC(=O)OC[C@H](COP(=O)(O)OC[C@H](N)C(=O)O)OC(=O)CCCCC [C6PS, 1,2-dicaproyl-sn-glycero-3-phospho-L-serine]",fold tighter FVa2 interaction with FXa than FVa1,[1],at least 300 fold
same,Kd,factor Va,~90 µM
